Assay results as given in patent publication US8252524B2, “Method of screening pharmaceutical compositions that promote nuclear transfer of Cdc42 protein” (Kowa Company, Ltd., priority 2004, dated 2012).

Assays:
[1] = test system: vascular endothelial cells; details: cited from earlier work
Cdc42 protein = assay: Nuclear transfer of GFP/Cdc42 fusion protein in transformed HUVEC observed by fluorescence microscopy; format: cell-based; details: HUVEC expressing GFP/Cdc42 fusion protein; 1 μM final concentration; 15 hours culture; nuclei confirmed by Hoechst staining
Experimental: The present inventors measured the behavior of Cdc42 protein in HUVEC with an HMG-CoA reductase inhibitor, particularly pitavastatin. For this measurement, a gene encoding a Cdc42/fluorescence protein GFP fusion protein was introduced into HUVEC to prepare a transformed cell expressing a GFP/Cdc42 fusion protein. This transformed cell was cultured, and the state of Cdc42 distributed in the cell in the presence or absence of pitavastatin was examined by observing the fluorescence of GFP. A gene encoding the whole area of a Cdc42 translation region was introduced into a predetermined position of a commercial plasmid pEGFP-C1 for preparation of a fusion protein consisting of GFP and a desired protein, to construct a plasmid comprising the GFP-Cdc42 gene. After […] were put to a 6-well plate and then cultured overnight in EGM-2 medium. Using Fugene 6, the plasmid construct DNA prepared above was added in an amount of 0.8 μg/well to the cells. The cells were further cultured for 21 hours in EGM-2 medium, and then the fluorescence of GFP was observed under a fluorescence microscope. […] And then the cells were subjected to stationary culture for 15 hours, fixed onto a prepared slide and observed under a fluorescence microscope. […]

O=C(O)C[C@H](O)C[C@H](O)/C=C/c1c(C2CC2)nc2ccccc2c1-c1ccc(F)cc1 [pitavastatin, (3R,5S,6E)-7-[2-cylopropyl-4-(4-fluorophenyl)-3-quinolyl]-3,5-dihydroxy-6-heptenoic acid]
Expression of NO synthase and thrombomodulin [1]: promotes expression of NO synthase | Expression of PTX3 [1]: suppresses expression of PTX3 | Expression of inflammatory cytokine IL-8 or MCP-1, endothelin and PAI-1 [1]: suppresses expression of inflammatory cytokine IL-8 or MCP-1, expression of endothelin and expression of PAI-1 | Distribution of GFP-Cdc42 in the cell (transfer into the nucleus) (Cdc42 protein): GFP-Cdc42 is transferred to a nucleus
